Measured values as given in US20260117071A1, “ICG LIPID DERIVATIVE, AND LIPID MICROPARTICLES EACH CONTAINING SAME” (Eisai R&D Management Co., Ltd., priority 2022, published 2026).

Test: Calculation of the molar extinction coefficient (absorption spectrum in ethanol)
Type: physicochemical
Details: absorbance at 790 nm, 5 μM in ethanol, optical path length 1 cm
Experimental: An ICG lipid solution, prepared by the dissolution of the particular ICG lipid derivative or ICG in ethanol to provide 5 μM in each case, was introduced into a cuvette with an optical path length of 1 cm, and the absorption spectrum at 230 to 1000 nm was measured using an Infinite M200 (Tecan). The absorption spectra in FIG. 5 were provided by subtracting the absorption spectra of ethanol from the absorbance at each wavelength.
The molar concentration used in the calculation of the molar extinction coefficient was itself calculated using a purity of 100% for the ICG lipid derivative and using the nonsalt form.
For `CCCCCCCC/C=C\CCCCCCCC(=O)OCC(COP(=O)(O)OCCNC(=O)CCN1/C(=C/C=C/C=C/C=C/C2=[N+](CCCCS(=O)(=O)[O-])c3ccc4ccccc4c3C2(C)C)C(C)(C)c2c1ccc1ccccc21)OC(=O)CCCCCCC/C=C\CCCCCCCC` (centres unmarked) [ICG-DOPE, 4-(2-((1E,3E,5E,7E)-7-(3-(3-((2-(((2,3-bis(oleoyloxy)propoxy)oxidophosphoryl)oxy)ethyl)amino)-3-oxopropyl)-1,1-dimethyl-1,3-dihyro-2H-benzo[e]indol-2-ylidene)hepta-1,3,5-trien-1-yl)-1,1-dimethyl-1H-benzo[e]indol-3-ium-3-yl)butane-1-sulfonate, reference compound], the “molar extinction coefficient ε” value was 165860 L/mol/cm.
With `CCCCCCCCCCCCCCCCCC(=O)OCC(COP(=O)([O-])OCCNC(=O)CC[N+]1=C(/C=C/C=C/C=C/C=C2/N(CCC(=O)NCCOP(=O)(O)OCC(COC(=O)CCCCCCCCCCCCCCCCC)OC(=O)CCCCCCCCCCCCCCCCC)c3ccc4ccccc4c3C2(C)C)C(C)(C)c2c1ccc1ccccc21)OC(=O)CCCCCCCCCCCCCCCCC` (centres unmarked) [ICG-diDSPE, 2-(3-(2-((1E,3E,5E,7E)-7-(3-(3-((2-(((2,3-bis(stearoyloxy)propoxy)(hydroxy)phosphoryl)oxy)ethyl)amino)-3-oxopropyl)-1,1-dimethyl-1,3-dihydro-2H-benzo[e]indol-2-ylidene)hepta-1,3,5-trien-1-yl)-1,1-dimethyl-1H-benzo[e]indol-3-ium-3-yl)propanamide)ethyl (2,3-bis(stearoyloxy)propyl) phosphate] the “molar extinction coefficient ε” value was 199840 L/mol/cm.
For `CC1(C)C(/C=C/C=C/C=C/C=C2/N(CCCCS(=O)(=O)[O-])c3ccc4ccccc4c3C2(C)C)=[N+](CCCCS(=O)(=O)[O-])c2ccc3ccccc3c21.[Na+]` [ICG, Indocyanine green, reference compound], the “molar extinction coefficient ε” value was 208980 L/mol/cm.
For `CCCCCCCC/C=C\CCCCCCCC(=O)OCC(COP(=O)([O-])OCCNC(=O)CC[N+]1=C(/C=C/C=C/C=C/C=C2/N(CCC(=O)NCCOP(=O)(O)OCC(COC(=O)CCCCCCC/C=C\CCCCCCCC)OC(=O)CCCCCCC/C=C\CCCCCCCC)c3ccc4ccccc4c3C2(C)C)C(C)(C)c2c1ccc1ccccc21)OC(=O)CCCCCCC/C=C\CCCCCCCC` (centres unmarked) [ICG-diDOPE, 2-(3-(2-((1E,3E,5E,7E)-7-(3-(3-((2-(((2,3-bis(oleoyloxy)propoxy)(hydroxy)phosphoryl)oxy)ethyl)amino)-3-oxopropyl)-1,1-dimethyl-1,3-dihydro-2H-benzo[e]indol-2-ylidene)hepta-1,3,5-trien-1-yl)-1,1-dimethyl-1H-benzo[e]indol-3-ium-3-yl)propanamide)ethyl(2,3-bis(oleoyloxy)propyl) phosphate], the “molar extinction coefficient ε” value was 161100 L/mol/cm.
In the case of `CCCCCCCCCCCCCCCCCCNC(=O)CCN1/C(=C/C=C/C=C/C=C/C2=[N+](CCC(=O)NCCCCCCCCCCCCCCCCCC)c3ccc4ccccc4c3C2(C)C)C(C)(C)c2c1ccc1ccccc21` [ICG-diSA, 2-((1E,3E,5E,7E)-7-(1,1-dimethyl-3-(3-(octadecylamino)-3-oxopropyl)-1,3-dihydro-2H-benzo[e]indol-2-ylidene)hepta-1,3,5-trien-1-yl)-1,1-dimethyl-3-(3-(octadecylamino)-3-oxopropyl)-1H-benzo[e]indol-3-ium], the “molar extinction coefficient ε” value is reported as 177760 L/mol/cm.
